Patent US20060069132A1, “Azolecarboxamide herbicides” (priority 2004, published 2006)

Tests used:
common mallow = assay: Test E pre-/postemergence herbicide test; format: in vivo, Malva sylvestris; details: Preemergence
Text: (§1) Seeds of plant species selected from bipinnate beggarticks (Bidens bipinnata L.), hairy beggarticks (Bidens radiata Thuill.), bermudagrass (Cynodon dactylon (L.) Pers.), Surinam grass (Urochloa decumbens (Staph) R. D. Webster, previously named Brachiaria decumbens Stapf), large crabgrass (Digitaria sanguinalis (L.) Scop.), green foxtail (Setaria viridis (L.) P. Beauv.), goosegrass (Eleusine indica (L.) Gaertn.), johnsongrass (Sorghum halepense (L.) Pers.), kochia (Kochia scoparia (L.) Schrad.), pitted morningglory (Ipomoea lacunosa L.), purple nutsedge (Cyperus rotundus L.), common ragweed (Ambrosia elatior L.), mustard (Brassica nigra (L.) W. D. J. Koch), guineagrass (Panicum maximum Jacq.), dallisgrass (Paspalum dilatatum Poir.), barnyardgrass (Echinochloa crus-galli (L). P. Beauv.), southern sandbur (Cenchrus echinatus L.), common sowthistle (Sonchus oleraceous L.), prickly sida (Sida spinosa L.), Italian ryegrass (Lolium multiflorum Lam.), common purslane (Portulaca oleracea L.), broadleaf signalgrass (Brachiaria platyphylla (Griseb.) Nash), common groundsel (Senecio vulgaris L.), common chickweed (Stellaria media (L.) Vill/Cyr.), tropical spiderwort (Commelina benghalensis L.), annual bluegrass (Poa annua L.), downy bromegrass (Bromus tectorum L.), itchgrass (Rottboellia cochinchinensis (L.) L.f.), quackgrass (Elytrigia repens (L.) Nevski), Canada horseweed (Erigeron Canadensis L.), field bindweed (Convolvulus arvensis L.), spotted spurge (Euphorbia maculata L.), common mallow (Malva sylvestris (=s silvestris) L.), and Russian thistle (Salsola kali L. ssp. Ruthenica (Iljin) Soo) were planted and treated preemergence with test chemicals formulated in a non-phytotoxic solvent mixture which included a surfactant.
(§2) At the same time, plants selected from these weed species were treated with postemergence applications of some of the test chemicals formulated in the same manner. Plants ranged in height from 2 to 18 cm (1- to 4-leaf stage) for postemergence treatments. Treated plants and controls were maintained in a greenhouse for 12 to 14 days, after which time all species were compared to controls and visually evaluated. Plant response ratings, summarized in Table E, are based on a scale of 0 to 100 where 0 is no effect and 100 is complete control. A dash (-) response means no test result.

barnyardgrass = assay: Test E pre-/postemergence herbicide test; format: in vivo, Echinochloa crus-galli; details: Preemergence
Text: as §1, §2

broadleaf signalgrass = assay: Test E pre-/postemergence herbicide test; format: in vivo, Brachiaria platyphylla; details: Preemergence
Text: as §1, §2

johnsongrass = assay: Test E pre-/postemergence herbicide test; format: in vivo, Sorghum halepense; details: Preemergence
Text: as §1, §2

Canada horseweed = assay: Test E pre-/postemergence herbicide test; format: in vivo, Erigeron Canadensis; details: Preemergence
Text: as §1, §2

annual bluegrass = assay: Test E pre-/postemergence herbicide test; format: in vivo, Poa annua; details: Preemergence
Text: as §1, §2

pitted morningglory = assay: Test E pre-/postemergence herbicide test; format: in vivo, Ipomoea lacunosa; details: Preemergence
Text: as §1, §2

bermudagrass = assay: Test E pre-/postemergence herbicide test; format: in vivo, Cynodon dactylon; details: Preemergence
Text: as §1, §2

Surinam grass = assay: Test E pre-/postemergence herbicide test; format: in vivo, Urochloa decumbens; details: Preemergence
Text: as §1, §2

Italian ryegrass = assay: Test C postemergence herbicide test; format: in vivo, Lolium multiflorum
Protocol: (§3) At the same time, plants selected from these crop and weed species and also winter barley (Hordeum vulgare L.), blackgrass (Alopecurus myosuroides Huds.), canarygrass (Phalaris minor Retz.), chickweed (Stellaria media (L.) Vill.), downy bromegrass (Bromus tectorum L.), green foxtail (Setaria viridis (L.) Beauv.), Italian ryegrass (Lolium multiflorum Lam.), wheat (Triticum aestivum L.), wild oat (Avenafatua L.) and windgrass (Apera spica-venti (L.) Beauv.) were treated with postemergence applications of some of the test chemicals formulated in the same manner. Plants ranged in height from 2 to 18 cm (1- to 4-leaf stage) for postemergence treatments. Plant species in the flooded paddy test consisted of rice (Oryza sativa), smallflower umbrella sedge (Cyperus difformis L.), ducksalad (Heteranthera limosa (Sw.) Willd.) and barnyardgrass (Echinochloa crus-galli (L.) Beauv.) grown to the 2-leaf stage for testing. Treated plants and controls were maintained in a greenhouse for 12 to 14 days, after which time all species were compared to controls and visually evaluated. Plant response ratings, summarized in Table C, are based on a scale of 0 to 100 where 0 is no effect and 100 is complete control. A dash (-) response means no test result.

windgrass = assay: Test C postemergence herbicide test; format: in vivo, Apera spica-venti
Protocol: as §3

[1] = 500 g ai/ha, scale 0 (no effect) to 100 (complete control)
[2] = 250 g ai/ha, scale 0 (no effect) to 100 (complete control)
[3] = postemergence, 125 g ai/ha, scale 0 to 100
[4] = postemergence, 62 g ai/ha, scale 0 to 100
[5] = Postemergence, 250 g ai/ha, scale 0 to 100, 0 no effect, 100 complete control
[6] = Postemergence, 500 g ai/ha, scale 0 to 100, 0 no effect, 100 complete control
[7] = Postemergence, 500 g ai/ha, scale 0 to 100

Structure (SMILES)	Plant response rating, Mallow (common mallow; 62 g ai/ha, scale 0 to 100)	Plant response rating, Mallow (common mallow; 125 g ai/ha, scale 0 to 100)	Plant response rating, Mallow (common mallow; [1])	Plant response rating, Barnyardgrass (barnyardgrass; 62 g ai/ha, scale 0 to 100)	Plant response rating, Barnyardgrass (barnyardgrass; 125 g ai/ha, scale 0 to 100)	Plant response rating, Barnyardgrass (barnyardgrass; [2])	Plant response rating, Barnyardgrass (barnyardgrass; [1])	Plant response rating, Signalgrass (broadleaf signalgrass; 62 g ai/ha, scale 0 to 100)	Plant response rating, Signalgrass (broadleaf signalgrass; 125 g ai/ha, scale 0 to 100)	Plant response rating, Signalgrass (broadleaf signalgrass; [2])	Plant response rating, Signalgrass (broadleaf signalgrass; [1])	Plant response rating, Johnsongrass (johnsongrass; 62 g ai/ha, scale 0 to 100)	Plant response rating, Johnsongrass (johnsongrass; 125 g ai/ha, scale 0 to 100)	Plant response rating, Johnsongrass (johnsongrass; [2])	Plant response rating, Johnsongrass (johnsongrass; [1])	Plant response rating, Horseweed (Canada horseweed; 125 g ai/ha, scale 0 to 100)	Plant response rating, Ryegrass, Italian (Italian ryegrass; [3])	Plant response rating, Ryegrass, Italian (Italian ryegrass; [4])	Plant response rating, Windgrass (windgrass; [3])	Plant response rating, Windgrass (windgrass; [4])	further results
CCc1nn(C(C)(C)C)nc1C(=O)Nc1cccc(C(=S)N(C)C)c1 [Compound 395]	20	50	60	50	60	95	95	10	75	85	90	30	80	90	90	100					Plant response rating, Horseweed (Canada horseweed; 62 g ai/ha, scale 0 to 100): 90; Plant response rating, Horseweed (Canada horseweed; [2]): 100; Plant response rating, Horseweed (Canada horseweed; [1]): 100; Plant response rating, Bluegrass (annual bluegrass; 62 g ai/ha, scale 0 to 100): 30; Plant response rating, Bluegrass (annual bluegrass; 125 g ai/ha, scale 0 to 100): 80; Plant response rating, Bluegrass (annual bluegrass; [2]): 95; Plant response rating, Bluegrass (annual bluegrass; [1]): 95; Plant response rating, Morningglory (pitted morningglory; 62 g ai/ha, scale 0 to 100): 20; Plant response rating, Morningglory (pitted morningglory; 125 g ai/ha, scale 0 to 100): 40; Plant response rating, Morningglory (pitted morningglory; [2]): 75; Plant response rating, Morningglory (pitted morningglory; [1]): 75; Plant response rating, Bermudagrass (bermudagrass; 62 g ai/ha, scale 0 to 100): 90; Plant response rating, Bermudagrass (bermudagrass; 125 g ai/ha, scale 0 to 100): 95; Plant response rating, Bermudagrass (bermudagrass; [2]): 95; Plant response rating, Bermudagrass (bermudagrass; [1]): 95; Plant response rating, Surinam Grass (Surinam grass; 125 g ai/ha, scale 0 to 100): 75; Plant response rating, Surinam Grass (Surinam grass; [1]): 90
Cc1nn(C(C)(C)C)nc1C(=O)Nc1cccc(C(=O)N2CC=CC2)c1 [Compound 393]	10	60	95	0	60	80	80	0	30	75	85	30	60	60	80	95	60	55	55	45	Plant response rating, Mallow (common mallow; [2]): 95; Plant response rating, Horseweed (Canada horseweed; 62 g ai/ha, scale 0 to 100): 90; Plant response rating, Horseweed (Canada horseweed; [2]): 100; Plant response rating, Horseweed (Canada horseweed; [1]): 100; Plant response rating, Bluegrass (annual bluegrass; 62 g ai/ha, scale 0 to 100): 10; Plant response rating, Bluegrass (annual bluegrass; 125 g ai/ha, scale 0 to 100): 30; Plant response rating, Bluegrass (annual bluegrass; [2]): 75; Plant response rating, Bluegrass (annual bluegrass; [1]): 95; Plant response rating, Morningglory (pitted morningglory; 62 g ai/ha, scale 0 to 100): 0; Plant response rating, Morningglory (pitted morningglory; 125 g ai/ha, scale 0 to 100): 60; Plant response rating, Morningglory (pitted morningglory; [2]): 95; Plant response rating, Morningglory (pitted morningglory; [1]): 95; Plant response rating, Bermudagrass (bermudagrass; 62 g ai/ha, scale 0 to 100): 40; Plant response rating, Bermudagrass (bermudagrass; 125 g ai/ha, scale 0 to 100): 90; Plant response rating, Bermudagrass (bermudagrass; [2]): 95; Plant response rating, Bermudagrass (bermudagrass; [1]): 100; Plant response rating, Surinam Grass (Surinam grass; 125 g ai/ha, scale 0 to 100): 20; Plant response rating, Surinam Grass (Surinam grass; [1]): 70
CCNC(=O)c1ccc(F)c(NC(=O)c2c3c(nn2CC)C(C)(C)CC3)c1 [Compound 353]																	15	10	10	0	Plant response rating, Ryegrass, Italian (Italian ryegrass; [5]): 15; Plant response rating, Ryegrass, Italian (Italian ryegrass; [6]): 20; Plant response rating, Windgrass (windgrass; [5]): 10; Plant response rating, Windgrass (windgrass; [6]): 10
C=CCNC(=O)c1cccc(NC(=O)c2nn(C(C)(C)C)nc2CC)c1 [Compound 414]																	55	50	60	55	Plant response rating, Ryegrass, Italian (Italian ryegrass; [6]): 60; Plant response rating, Windgrass (windgrass; [6]): 65
CCc1nn(C(C)(C)C)nc1C(=O)Nc1cccc(C(=O)N(C)CC)c1 [Compound 384]	50	70	95	40	80	85	100	10	70	80	80	40	75	80	85	75	55	45	45	45	Plant response rating, Mallow (common mallow; [2]): 70; Plant response rating, Horseweed (Canada horseweed; [2]): 95; Plant response rating, Horseweed (Canada horseweed; [1]): 100; Plant response rating, Bluegrass (annual bluegrass; 62 g ai/ha, scale 0 to 100): 50; Plant response rating, Bluegrass (annual bluegrass; 125 g ai/ha, scale 0 to 100): 75; Plant response rating, Bluegrass (annual bluegrass; [2]): 80; Plant response rating, Bluegrass (annual bluegrass; [1]): 95; Plant response rating, Morningglory (pitted morningglory; 62 g ai/ha, scale 0 to 100): 10; Plant response rating, Morningglory (pitted morningglory; 125 g ai/ha, scale 0 to 100): 60; Plant response rating, Morningglory (pitted morningglory; [2]): 80; Plant response rating, Morningglory (pitted morningglory; [1]): 90; Plant response rating, Bermudagrass (bermudagrass; 62 g ai/ha, scale 0 to 100): 80; Plant response rating, Bermudagrass (bermudagrass; 125 g ai/ha, scale 0 to 100): 95; Plant response rating, Bermudagrass (bermudagrass; [2]): 95; Plant response rating, Bermudagrass (bermudagrass; [1]): 95; Plant response rating, Surinam Grass (Surinam grass; 125 g ai/ha, scale 0 to 100): 60; Plant response rating, Surinam Grass (Surinam grass; [1]): 95
CCOC(=O)c1cccc(NC(=O)c2nn(C(C)(C)CC)nc2CC)c1 [Compound 375]																	65	65	60	40	
CCn1nc(C(C)(C)C)cc1C(=O)Nc1cccc(OC(F)F)c1 [Compound 332]																	60	60	60	35	Ryegrass, Italian plant response rating (Italian ryegrass; [7]): 70; Plant response rating, Ryegrass, Italian (Italian ryegrass; [5]): 70; Windgrass plant response rating (windgrass; [7]): 75; Plant response rating, Windgrass (windgrass; [5]): 65
CCn1nc(C(C)(C)C)cc1C(=O)Nc1cc(C(=S)N(C)C)ccn1 [Compound 334]																	35	30	60	60	Plant response rating, Ryegrass, Italian (Italian ryegrass; [5]): 45; Plant response rating, Windgrass (windgrass; [5]): 75
